≈ marks a conversion by molar mass, not a printed value. Where “and” joins values, the source holds several entries; their conditions need not be identical. Equal values may be shown once. Read-outs that look alike come from different tables or passages of the source.
What was measured:
[1] = system: human pancreatic cancer cells (PANC-1); conditions: literature value; read-out: IC50 for Panc-1 reported by Holcomb et al.; cited from earlier work
[2] = for Curcumin content of reconstituted solution: 100 mg in 10 mL water
Protocol: The water solutions containing the complexes of the water-insoluble compound and the solubilizer were dried to remove the water and to form a powder. […] Any method of water removal could be used, including freeze-drying, spray-drying, or oven drying. […] The amount of added water can be adjusted to achieve the desired concentration of the compound.
The 30% and 40% curcumin-rubusoside water solution (10 mL) were freeze-dried to powder. […] Part of this powder (100 mg) was re-constituted in 10 mL water. […] (FIG. 13) Similarly, the 30% curcumin-rebusoside solution was freeze-dried to powder, and 100 mg powder reconstituted with 10 mL water.
The powder was reconstituted using 1 ml, 0.5 ml, 0.25 ml or 0.1 ml water, followed by 60 min sonication and a brief vortex. […] Paclitaxel concentrations were determined using a standard paclitaxel calibration curve with paclitaxel standard in methanol. […] (FIG. 15).

[3] = Concentration of curcumin dissolved in rebaudioside A water solution, HPLC; type: physicochemical; conditions: 5% w/v rebaudioside A
Source text: A new method (the “Sonication—autoclave method”) was used to solublize most of the compounds, a method different from that reported in International Patent Application No. PCT/US2009/040324 (the “Standard Shake Flask method”). The main difference was the use of higher temperatures and elevated atmospheric pressures. The steps of the new enhanced process are as follows. A water-insoluble compound was weighed into multiple flasks, divided into two groups—a control group and an experimental group. Each experimental flask received a known amount of the solubilizing agent, e.g. rubusoside, being tested. The control flasks contained only the water-insoluble compound. The same volume, 10 mL, unless otherwise indicated, of deionized and distilled water was added to each flask. Alternatively, water solutions containing a known percentage of solubilizer (e.g., 5% or 10% w/v) were prepared. The solubilizer-water solutions were added directly to the experimental flasks containing the water-insoluble compound. In either case, the flasks were then vortexed briefly and sonicated for 60 min at 50° C. Sonication is a process of applying sound (usually ultrasound) energy to agitate particles in a sample. Using this energy, inter-molecular interactions are facilitated. After sonication, the solution was then subjected to heat and pressure. […] The supernatant solution was passed through a 0.45 μm filter and analyzed for the concentration of the water-insoluble compound or solubilizer by HPLC or LC/MS, as described below.
To test if the enhanced process also applies to another solubilizing agent, rebuadioside A was used. […] The water solutions were filtered by 0.45 μM filters and analyzed on HPLC. Quantification was done by comparing to a standard solution of a known amount of curcumin in methanol. […] Curcumin concentration was determined using a standard curcumin solution of 196.8 μg/mL. […]

[4] = Stability of curcumin-rubusoside water solutions (dilution with water, storage, pH); type: physicochemical
Protocol: This is important because the concentrated curcumin solution may be diluted in a biological system, e.g., in the stomach fluid.
Various concentrations of the solubilizer rubusoside were prepared in water: 0%, 1%, 2.5%, 5%, 10%, 20%, 30%, and 40% w/v. Curcumin (100 mg) was weighed and added into separate flasks, and an equal amount (10 ml) of a rubusoside solution was added to each flask. The prepared water solutions were vortexed briefly and then sonicated for 60 min at temperature of 50° C. These water solutions were subjected to a heat and pressure treatment composed of 121° C. and 1.1 to 1.2 atm for 60 min, and then placed in an incubator set at 25° C. for at least 24 hr. The solutions were then centrifuged at 4000 rpm for 10 min. The supernatant solution was passed through a 0.45 μm filter and analyzed for the concentration of either the water-insoluble compound or rubusoside by HPLC or LC/MS, as described above in Example 2. Quantification was done by comparing to a standard solution of a known amount in methanol. In the presence of 0%, 1%, 2.5%, 5%, 10%, 20%, 30%, and 40% w/v of rubusoside, the water solutions contained 0, 28, 267, 762, 1330, 2914, 4449, and 6004 μg/mL curcumin, respectively. […] When adjusted to about pH 7.0 by the addition of 1× phosphate buffered saline (PBS) powder, the solutions remained stable for at least 48 hours. Thus the reconstituted solution with saline would be sufficiently stable at pH 7.0 for use in a clinic setting.

[5] = system: human pancreatic cancer cells (PANC-1); assay: Growth inhibition of PANC-1 cells by re-constituted curcumin water solution; type: cell-based
Protocol: The pH-adjusted water solution was then co-cultured with human pancreatic cancer cells (PANC-1) for 72 hours in a standard cell culture medium. […] All culture materials were purchased from Invitrogen Corporation (Carlsbad, Calif.). […] (FIG. 14).

in vitro = conditions: human, Caco-2
Source text: Human epithelial colorectal adenocarcinoma cell line (Caco-2) was obtained from the American Type Culture Collection (ATCC), and cultured according to directions. Caco-2 cells grown in tissue culture flasks were trypsinized, suspended in medium, and the suspensions were applied to wells of a collagen-coated BioCoat Cell Environment in 24-well format (BD Biosciences) at 24,500 cells per well. The cells were allowed to grow and differentiate for three weeks, feeding at 2-day intervals. […] For Apical to Basolateral (A->B) permeability, the test agent (1 mg/mL)+probe substrate were added to the apical (A) side, test agent was added to the Basolateral (B) side, and amount of permeation was determined on the B side. For Basolateral to Apical (B>A) permeability, the test agent+probe substrate were added to the B side, test agent was added to the A side, and the amount of permeation of probe substrate was determined on the A side. Buffer alone, without test agent, was used as a negative control. […] Dosing solutions were prepared by dissolving the test agent in Transport buffer, then adding Lucifer yellow to a portion as indicated. CaCo-2 cells were incubated with these buffers for 2 h., and the receiver side buffer is removed for analysis by LC/MS/MS.
To verify the CaCo-2 cell monolayers were properly formed, aliquots of the cell buffers were analyzed by fluorescence to determine the transport of the impermeable dye Lucifer Yellow.
Where dQ/dt is the rate of permeation, C0 is the initial concentration of test agent, and A is the area of the monolayer.
From bidirectional permeability studies, the efflux ration (RE) is also calculated:
The P-gp inhibition data were calculated from the permeability results for the probe substrate as indicated. Ranitidine (low permeability) and warfarin (high permeability) are included as controls to ensure the proper performance of the test system.

physchem = conditions: 25 °C, aqueous with cosolvent or surfactant or cyclodextrin, thermodynamic from solid
[6] = room temperature; The Merck Index, 1996; cited from earlier work
[7] = Solubility in water without solubilizer; type: physicochemical
P-gp = target: T1, P-gp (Homo sapiens, UniProt P08183); assay: P-gp inhibition in Caco-2 assay with digoxin probe substrate; type: in vitro ADME; conditions: Caco-2 cell monolayers, probe digoxin 5 µM, test conc 1 mg/mL (1.558 mM), 5 μM digoxin
T1 construct: endogenous in cells; host or cells: Caco-2 (ATCC), differentiated for three weeks on collagen-coated inserts
T1 sequence (P08183 whole entry): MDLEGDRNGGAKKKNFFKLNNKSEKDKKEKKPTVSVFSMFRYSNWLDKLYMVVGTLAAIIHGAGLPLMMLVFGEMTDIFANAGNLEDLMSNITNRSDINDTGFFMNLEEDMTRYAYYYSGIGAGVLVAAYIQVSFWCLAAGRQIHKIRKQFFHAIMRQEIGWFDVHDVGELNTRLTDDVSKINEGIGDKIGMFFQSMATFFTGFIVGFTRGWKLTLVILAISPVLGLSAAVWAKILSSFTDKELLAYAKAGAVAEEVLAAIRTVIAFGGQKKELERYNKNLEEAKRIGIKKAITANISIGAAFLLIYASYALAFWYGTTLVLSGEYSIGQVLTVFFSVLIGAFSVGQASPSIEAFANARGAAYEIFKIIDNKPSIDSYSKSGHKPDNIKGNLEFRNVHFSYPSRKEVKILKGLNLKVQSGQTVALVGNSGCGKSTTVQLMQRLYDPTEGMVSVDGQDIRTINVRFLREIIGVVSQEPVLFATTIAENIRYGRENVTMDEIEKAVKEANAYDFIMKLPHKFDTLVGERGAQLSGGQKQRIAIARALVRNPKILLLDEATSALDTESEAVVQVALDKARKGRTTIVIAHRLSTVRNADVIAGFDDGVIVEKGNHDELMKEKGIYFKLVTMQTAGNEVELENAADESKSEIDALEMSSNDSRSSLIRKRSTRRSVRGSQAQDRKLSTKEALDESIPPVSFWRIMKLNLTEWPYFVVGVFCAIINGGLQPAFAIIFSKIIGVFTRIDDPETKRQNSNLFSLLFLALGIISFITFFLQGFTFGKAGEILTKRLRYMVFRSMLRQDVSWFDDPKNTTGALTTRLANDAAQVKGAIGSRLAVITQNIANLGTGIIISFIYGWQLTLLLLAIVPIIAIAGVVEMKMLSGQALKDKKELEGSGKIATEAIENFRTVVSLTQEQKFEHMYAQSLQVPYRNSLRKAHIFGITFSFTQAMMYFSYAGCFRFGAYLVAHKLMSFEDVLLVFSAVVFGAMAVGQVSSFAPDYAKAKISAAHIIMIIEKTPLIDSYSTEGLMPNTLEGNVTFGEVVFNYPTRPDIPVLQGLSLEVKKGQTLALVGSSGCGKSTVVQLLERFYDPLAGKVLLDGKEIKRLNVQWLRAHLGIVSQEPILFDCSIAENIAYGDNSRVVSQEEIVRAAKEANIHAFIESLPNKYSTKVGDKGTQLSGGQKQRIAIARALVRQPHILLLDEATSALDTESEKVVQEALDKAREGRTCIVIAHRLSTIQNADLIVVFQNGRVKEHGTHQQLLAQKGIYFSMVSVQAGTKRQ
Protocol: Test agent powders were stored at −20° C. […] After separation on a C18 reverse phase HPLC column (Agilent, Waters, or equivalent) using an acetonitrile-water gradient system, peaks were analyzed by mass spectrometry (MS) using ESI ionization in MRM mode.
Human epithelial colorectal adenocarcinoma cell line (Caco-2) was obtained from the American Type Culture Collection (ATCC), and cultured according to directions. Caco-2 cells grown in tissue culture flasks were trypsinized, suspended in medium, and the suspensions were applied to wells of a collagen-coated BioCoat Cell Environment in 24-well format (BD Biosciences) at 24,500 cells per well. […] For Apical to Basolateral (A->B) permeability, the test agent (1 mg/mL)+probe substrate were added to the apical (A) side, test agent was added to the Basolateral (B) side, and amount of permeation was determined on the B side. For Basolateral to Apical (B>A) permeability, the test agent+probe substrate were added to the B side, test agent was added to the A side, and the amount of permeation of probe substrate was determined on the A side. […]
To verify the CaCo-2 cell monolayers were properly formed, aliquots of the cell buffers were analyzed by fluorescence to determine the transport of the impermeable dye Lucifer Yellow. […]
From bidirectional permeability studies, the efflux ration (RE) is also calculated: […]

In the case of `COc1cc(/C=C/C(=O)CC(=O)/C=C/c2ccc(O)c(OC)c2)ccc1O` [curcumin], the Curcumin concentration (24 h) is listed as 0.34 mg/mL, the IC50 [1] is listed as 17 µM and the “Reconstitution of dried powder” value [2] is listed as “successfully reconstituted”. For the same molecule, the “Curcumin content of reconstituted solution” value ([2]; powder from 30% rubusoside solution) was 1.87 % w/w, the “Curcumin content of reconstituted solution” value ([2]; powder from 40% rubusoside solution) was 2.03 % w/w and the “Fold increase, enhanced vs standard process” value [3] was roughly 2 fold. The “Curcumin in water solution” value ([3]; enhanced process) was 302 µg/mL, the “Curcumin in water solution” value ([3]; standard process) was 156 µg/mL and the “Curcumin in water solution” value ([4]; Stock, 40.0% w/v rubusoside) was 6004 µg/mL. For the same molecule, the “Curcumin in water solution” value ([4]; stock diluted 1:1 with water, 20.0% rubusoside) was 2985 µg/mL, the “Curcumin in water solution” value ([4]; stock diluted 1:3 with water, 10.0% rubusoside) was 1489 µg/mL and the “Curcumin in water solution” value ([4]; stock diluted 1:7 with water, 5.0% rubusoside) was 742 µg/mL. For the same molecule, the “Curcumin in water solution” value ([4]; stock diluted 1:15 with water, […] rubusoside) was 358 µg/mL, the “Curcumin in water solution” value ([4]; stock diluted 1:39 with water, 1.0% rubusoside) was 135 µg/mL and the Growth inhibition ([5]; 6.25 μg/mL curcumin, 72 hours) was “strong inhibition”. For the same molecule, the “Curcumin concentration giving maximum growth inhibition” value ([5]; 72 hours) was no less than 12.5 µg/mL, the IC50 ([5]; Homo sapiens, PANC-1, re-constituted curcumin-rubusoside solution, pH 7.2, 72 hours) was ~5.5 µg/mL and ~14.9 µM and the Growth inhibition ([5]; curcumin below 3.13 μg/mL, 72 hours) was “no inhibitory effect”.

With `CC[C@@]1(O)C(=O)OCc2c1cc1n(c2=O)Cc2cc3ccccc3nc2-1` [camptothecin] the “Fold increase, enhanced vs standard process” value (10% w/v rubusoside) was “more than 3 fold”, the “Concentration in water solution” value (10% w/v rubusoside, enhanced process (Sonication-Autoclave)) was 247 µg/mL and the “Concentration in water solution” value (10% w/v rubusoside, standard process (Shake-flask)) was 80 µg/mL.

With `Oc1ccc(C=Cc2cc(O)cc(O)c2)cc1` [resveratrol] the “Reconstitution of dried powder” value [2] was “successfully reconstituted”.

In the case of `CC(=O)[C@H]1CC[C@H]2[C@@H]3CCC4=CC(=O)CC[C@]4(C)[C@H]3CC[C@]12C` [progesterone], the “Reconstitution of dried powder” value [2] is reported as “successfully reconstituted”.

Work on `CNC(=C[N+](=O)[O-])NCCSCc1ccc(CN(C)C)o1` [Ranitidine] yielded a Papp A→B at 2 h, 10 μM (in vitro) of 1.7 ×10⁻⁶ cm/s.

Work on `C[C@H]1O[C@@H](O[C@H]2[C@@H](O)C[C@H](O[C@H]3[C@@H](O)C[C@H](O[C@H]4CC[C@@]5(C)[C@H](CC[C@@H]6[C@@H]5C[C@@H](O)[C@]5(C)[C@@H](C7=CC(=O)OC7)CC[C@]65O)C4)O[C@@H]3C)O[C@@H]2C)C[C@H](O)[C@@H]1O` [Digoxin, digoxin] yielded a Papp A→B at 2 h, 5 μM (in vitro) of 1.4 ×10⁻⁶ cm/s, a Papp B→A at 2 h, 5 μM (in vitro) of 18.7 ×10⁻⁶ cm/s and an efflux ratio at 2 h, 5 μM (in vitro) of 13.7.

In the case of `C=C1CC[C@H](O)C/C1=C/C=C1\CCC[C@]2(C)[C@@H]([C@H](C)CCCC(C)C)CC[C@@H]12` [vitamin D3, cholecalciferol], the “Concentration in re-composed single water solution” value (mixed vitamins A, D, E, K in 10% rubusoside) is reported as 4.7 µg/mL and the solubility (physchem) is reported as 4.5 mg/mL (≈ 11.7 mM).

With `CC(=O)CC(c1ccccc1)c1c(O)c2ccccc2oc1=O` (stereo not shown) [Warfarin, warfarin] the Papp A→B at 2 h, 10 μM (in vitro) was 33.5 ×10⁻⁶ cm/s.

In the case of `O=C(O)c1cc(O)c(O)c(O)c1` [Gallic acid], the Solubility in water [6] is listed as “about 11 mg/ml”.

Molecule `C=C1C[C@@]23CC[C@H]4[C@@](C)(CCC[C@@]4(C)C(=O)O[C@@H]4O[C@H](CO)[C@@H](O)[C@H](O)[C@H]4O)[C@@H]2CC[C@]1(O[C@@H]1O[C@H](CO)[C@@H](O)[C@H](O)[C@H]1O)C3` [Rubusoside, b-D-glucosyl ester of 13-O-b-D-glucosyl-steviol] has a solubility ([7]; 25° C.) of roughly 400 mg/mL (≈ 622 mM), a solubility ([7]; 37° C.) of roughly 800 mg/mL (≈ 1240 mM) and an inhibition at 2 h, 1 mg/mL (P-gp) of 59%.

Reference: patent publication US20120329738A1, “Water Soluble Drug-Solubilizer Powders and Their Uses” (priority 2009, published 2012)
